# Source: US7109193B2, “Tricyclic diazepines tocolytic oxytocin receptor antagonists” (Wyeth, priority 2001, dated 2006)
# Experiments:
# [1] = biological target: T1, human vasopressin V2 receptor subtype (Homo sapiens, UniProt P30518); assay: Vasopressin binding in Chinese Hamster Ovary cell membranes expressing human vasopressin V2 subtype receptors; conditions: 100 nM, CHO cell membranes, [3H]arginine vasopressin, values without parentheses
# T1 construct: host or cells: CHO cells (pZeoSV vector)
# Procedure, shortened: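 Radioligand displacement on membranes from CHO cells stably expressing human V2 receptor, 25 to 50 μg protein/well, in 50 mM Tris-HCl pH 7.4 with MgCl2, BSA and protease inhibitors. [^3H]arginine vasopressin (8 nM working solution) incubated 60 min at room temperature; bound label measured by filtration and scintillation counting.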
# T1 sequence (P30518 whole entry): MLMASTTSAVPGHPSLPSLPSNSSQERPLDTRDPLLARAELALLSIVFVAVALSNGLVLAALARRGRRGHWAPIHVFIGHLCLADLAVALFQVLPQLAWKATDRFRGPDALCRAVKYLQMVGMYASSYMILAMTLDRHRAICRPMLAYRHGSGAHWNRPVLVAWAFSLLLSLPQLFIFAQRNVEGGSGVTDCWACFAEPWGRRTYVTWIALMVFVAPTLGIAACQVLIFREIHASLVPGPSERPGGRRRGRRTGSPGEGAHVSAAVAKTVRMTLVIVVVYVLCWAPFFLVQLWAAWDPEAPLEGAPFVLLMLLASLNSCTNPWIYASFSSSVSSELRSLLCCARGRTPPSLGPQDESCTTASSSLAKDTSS
Compound,inhibition at 0.1 µM [1] [%],melting point [°C]
"Cc1cc(C(=O)N2Cc3cccn3Cc3ccccc32)cc(C)c1-n1c(C)ccc1C [Example 30, [4-(2,5-Dimethyl-1H-pyrrol-1-yl)-3,5-dimethyl-phenyl][10,11-dihydro-5H-pyrrolo[2,1-c][1,4]benzodiazepin-10-yl]methanone]",3,197 to 199
"CCOc1ccccc1-c1cc(OC)c(C(=O)N2Cc3cccn3Cc3ccccc32)cc1Cl [Example 17, 10-{[6-Chloro-3-methoxy-2′-ethoxy[1,1′-biphenyl]-4-yl]carbonyl}-10,11-dihydro-5H-pyrrolo[2,1-c][1,4]benzodiazepine]",32,213 to 215
"Cc1cc(C(=O)N2Cc3cccn3Cc3ccccc32)ccc1-c1ccncc1 [Example 31, [3-Methyl-4-(4-pyridinyl)phenyl]-[10,11-dihydro-5H-pyrrolo[2,1-c][1,4]benzodiazepin-10-yl]methanone]",31,208 to 210
"O=C(c1ccc(-c2ccccc2)nc1)N1Cc2cccn2Cc2ccccc21 [Example 29, (6-Phenyl-pyridin-3-yl)-[10,11-dihydro-5H-pyrrolo[2,1-c][1,4]benzodiazepin-10-yl]methanone]",24,171 to 174
"Cc1ccccc1-c1ccc(C(=O)N2Cc3ccc(C(=O)N4CCN(C)CC4)n3Cc3ccccc32)cc1 [Example 52, {10-[(2′-Methyl[1,1′-biphenyl]-4-yl)carbonyl]-10,11-dihydro-5H-pyrrolo[2,1-c][1,4]benzodiazepin-3-yl}(4-methyl-1-piperazinyl)methanone]",17,
"COc1cc(-c2ccccc2C)c(Cl)cc1C(=O)N1Cc2ccc(C(=O)N[C@@H]3CN4CCC3CC4)n2Cc2ccccc21 [Example 297, N-[(3S)-1-Azabicyclo[2.2.2]oct-3-yl]-10-[(6-chloro-3-methoxy-2′-methyl-[1,1′-biphenyl]-4-yl)carbonyl]-10,11-dihydro-5H-pyrrolo[2,1-c][1,4]benzodiazepine-3-carboxamide]",13,
"COc1cc(C(=O)N2Cc3ccc(C(=O)N4CCC(N5CCCC5)CC4)n3Cc3ccccc32)ccc1-n1c(C)ccc1C [Example 313, {10-[4-(2,5-Dimethyl-1H-pyrrol-1-yl)-3-methoxybenzoyl]-10,11-dihydro-5H-pyrrolo[2,1-c][1,4]benzodiazepin-3-yl}[4-(1-pyrrolidinyl)-1-piperidinyl]methanone]",2,
"COc1cc(C(=O)N2Cc3ccc(C(=O)NCCCN(C)C)n3Cc3ccccc32)ccc1-n1c(C)ccc1C [Example 308, N-[3-(Dimethylamino)propyl]-10-[4-(2,5-dimethyl-1H-pyrrol-1-yl)-3-methoxybenzoyl]-10,11-dihydro-5H-pyrrolo[2,1-c][1,4]benzodiazepine-3-carboxamide]",1,
"Cc1ccccc1-c1ccc(C(=O)N2Cc3ccc(C(=O)N4CCN(C)CC4)n3Cc3ccccc32)cc1C [Example 50, {10-[(2,2′-Dimethyl[1,1′-biphenyl]-4-yl)carbonyl]-10,11-dihydro-5H-pyrrolo[2,1-c][1,4]benzodiazepin-3-yl}(4-methyl-1-piperazinyl)methanone]",15,
"Cc1ccccc1-c1ccc(C(=O)N2Cc3ccc(C(=O)N4CCN(CCCN(C)C)CC4)n3Cc3ccccc32)cc1C [Example 247, {4-[3-(Dimethylamino)propyl]-1-piperazinyl}{10-[(2,2′-dimethyl[1,1′-biphenyl]-4-yl)carbonyl]-10,11-dihydro-5H-pyrrolo[2,1-c][1,4]benzodiazepin-3-yl}methanone]",21,
"COc1cccc(-c2ccc(C(=O)N3Cc4ccc(C(=O)N5CCN(C)CC5)n4Cc4ccccc43)cc2OC)c1 [Example 57, {10-[(2,3′-Dimethoxy[1,1′-biphenyl]-4-yl)carbonyl]-10,11-dihydro-5H-pyrrolo[2,1-c][1,4]benzodiazepin-3-yl}(4-methyl-1-piperazinyl)methanone]",11,
"COc1cc(C(=O)N2Cc3ccc(C(=O)n4ccnc4)n3Cc3ccccc32)ccc1-c1cccc2ccccc12 [Example 291, 1H-Imidazol-1-yl-{10-[3-methoxy-4-(1-naphthyl)benzoyl]-10,11-dihydro-5H-pyrrolo[2,1-c][1,4]benzodiazepin-3-yl}methanone]",5,
"COc1cc(-c2ccccc2C)c(Cl)cc1C(=O)N1Cc2ccc(C(=O)NCCCN(C)C)n2Cc2ccccc21 [Example 78, 10-[(6-Chloro-3-methoxy-2′-methyl[1,1′-biphenyl]-4-yl)carbonyl]-N-[3-(dimethylamino)propyl]-10,11-dihydro-5H-pyrrolo[2,1-c][1,4]benzodiazepine-3-carboxamide]",14,
"COc1cc(C(=O)N2Cc3ccc(C(=O)NCCCn4ccnc4)n3Cc3ccccc32)ccc1-n1c(C)ccc1C [Example 312, 10-[4-(2,5-Dimethyl-1H-pyrrol-1-yl)-3-methoxybenzoyl]-N-[3-(1H-imidazol-1-yl)propyl]-10,11-dihydro-5H-pyrrolo[2,1-c][1,4]benzodiazepine-3-carboxamide]",3,
"COc1ccccc1-c1ccc(C(=O)N2Cc3ccc(C(=O)N[C@H]4CN5CCC4CC5)n3Cc3ccccc32)cc1 [Example 296, N-[(3R)-1-Azabicyclo[2.2.2]oct-3-yl]-10-[(2′-methoxy[1,1′-biphenyl]-4-yl)carbonyl]-10,11-dihydro-5H-pyrrolo[2,1-c][1,4]benzodiazepine-3-carboxamide]",24,
"Cc1ccccc1-c1ccc(C(=O)N2Cc3ccc(C(=O)NCCCN(C)C)n3Cc3ccccc32)cc1 [Example 76, N-[3-(Dimethylamino)propyl]-10-[(2′-methyl[1,1′-biphenyl]-4-yl)carbonyl]-10,11-dihydro-5H-pyrrolo[2,1-c][1,4]benzodiazepine-3-carboxamide]",17,
"COc1cc(-c2ccccc2C)c(Cl)cc1C(=O)N1Cc2ccc(C(=O)N[C@@H](CCCCNC(=O)OC(C)(C)C)C(N)=O)n2Cc2ccccc21 [Example 304, tert-Butyl (5S)-6-amino-5-[({10-[(6-chloro-3-methoxy-2′-methyl[1,1′-biphenyl]-4-yl)carbonyl]-10,11-dihydro-5H-pyrrolo[2,1-c][1,4]benzodiazepin-3-yl}carbonyl)amino]-6-oxohexylcarbamate]",19,
"CN1CCN(C(=O)c2ccc3n2Cc2ccccc2N(C(=O)c2ccc(-c4cccc5ccccc45)cc2Cl)C3)CC1 [Example 58, {10-[2-Chloro-4-(1-naphthyl)benzoyl]-10,11-dihydro-5H-pyrrolo[2,1-c][1,4]benzodiazepin-3-yl}(4-methyl-1-piperazinyl)methanone]",18,
"COc1cccc(-c2cc(OC)c(C(=O)N3Cc4ccc(C(=O)N[C@@H](CCCCNC(=O)OC(C)(C)C)C(N)=O)n4Cc4ccccc43)cc2Cl)c1 [Example 302, tert-Butyl (5S)-6-amino-5-[({10-[(6-chloro-3,3′-dimethoxy[1,1′-biphenyl]-4-yl)carbonyl]-10,11-dihydro-5H-pyrrolo[2,1-c][1,4]benzodiazepin-3-yl}carbonyl)amino]-6-oxohexylcarbamate]",17,
